Test results from patent publication US20240148749A1 (priority 2021, published 2024).
Entries after “also recorded” stand apart in the source; their conditions may differ.

Tests used:
[1] = Liu et al., 2013b; cited from earlier work
microglial cells = assay: Microglial ROS/RNS, antioxidant defense and bioenergetic/mitochondrial parameters at 21 days; format: in vivo, mouse
Procedure: Data shown are mean values (±SD). Gray bars represent MnTBAP-treated mice from either CLP or control groups, and black bars represent placebo-treated mice from either CLP or Control groups. Two-way analyses of variance (ANOVAs) (CLP vs control×MnTBAP vs Placebo) were performed. When a significant interaction was observed, planned comparisons were performed for the CLP/Placebo group against the three other groups. The significance of the planned comparisons is indicated with asterisks (*p<0.05, **p<0.01, ***p<0.001, ****p<0.0001) .
(§1) Data shown are mean values (±SD). Gray bars represent MnTBAP-treated mice from either CLP or control groups, and black bars represent placebo-treated mice from either CLP or Control groups. Two-way analyses of variance (ANOVAs) (CLP vs Control×MnTBAP vs Placebo) were performed. When a significant interaction was observed, planned comparisons were performed for the CLP/Placebo group against the three other groups. The significance of the planned comparisons is indicated with asterisks (*p<0.05, **p<0.01, ***p<0.001, ****p<0.0001).
(§2) MnTBAP is commercially available: it is for example manufactured by Sigma-Aldrich, Calbiochem, etc. For use it is dissolved following the guidance provided by the manufacturer.
Brains were collected for cell dissociation and Cdllb-positive cell separation using a magnetic coupled antibody (MACS® Technology), according to the manufacturer's protocol (Miltenyi Biotec, Bergisch Gladbach, Germany) and as previously described (Schang et al., 2014). In brief, mice were intracardially perfused with NaCl 0,9%. The brains are then dissociated using the Neural Tissue Dissociation Kit containing trypsin and the gentleMACS Octo Dissociator with Heaters. From the resulting brain homogenate, cd11 b-positive cells were enriched using the anti-cd11 b MicroBeads. After elution the isolated cells were centrifuged for 5 min at 200G and conserved at −80° C.
Total RNA was isolated from cells using the RNAeasy Micro kit (Qiagen), and reverse-transcribed using Superscript® III Reverse transcriptase (Invitrogen). Real-time quantitative PCR was performed in duplicate for each sample using Power Sybr Green PCR Master Mix (Applied Biosystems) and the rate of dye incorporation was monitored using the StepOne™ Plus RealTime PCR system (Applied Biosystems). Data were analyzed by StepOne Plus RT PCR software v2.1 and Microsoft excel. Amplification specificity was assessed with a melting curve analysis. TBP transcript levels were used for normalisation of each target (=ΔCT). Real-time PCR CT values were analyzed using the 2^−(ΔCt) method to calculate the fold expression (Schmittgen et al., 2008). The data are presented as relative mRNA units with respect to control group (expressed as fold over control value). Primer sequences available upon request.
Microglial cells and brain samples were resuspended in lysis buffer (50 mM TrisHCI pH 7.5, 150 mM NaCl, 1% Triton X-100, 0.1% SDS, 1 mM EDTA, and protease inhibitor mixture), mechanically homogenized with a piston, briefly vortexed and incubated for 30 min at 4° C. Lysed samples were briefly centrifuged to remove debris, and the whole supernatant extract was collected. Aliquots of the supernatant were immediately used for the assessment of ROS level, RNS level, dual ROS/RNS level, SOD activity, and Acetyl-Coa level. The protein content was determined with the Bradford reagent (Sigma-Aldrich).
Both ROS and RNS were measured by incubating CellROX (Life Technologies) with 30 μg of freshly extracted total proteins for 45 min at 37° C. in the dark in 96-wells plate in triplicate. Fluorescence intensity was measured using near-infra-red fluorescence setting with the plate reader Odyssey Infrared Imaging system scanner and Odyssey application software v3.0 (LI-COR Biosciences, Lincoln, NE).
SOD activity was measured with Superoxide Dismutase Activity Colorimetric Assay kit (Abcam, ab65354), following the manufacturer's instructions. […]

control and CLP mice = assay: Novel Object Recognition test (NOR); format: in vivo, mouse; conditions: septic (CLP) mice, systemic MnTBAP treatment
Procedure: as §1, §2
Twice a week after the CLP, survival mice were gently handled for at least four 5-min sessions to habituate to the experimenter. Then, 20 and 21 days after CLP, mice were submitted to the novel object location (NOL) and novel object recognition (NOR) tests. […]
The familiarization sessions consisted on 10 min of free exploration of two identical objects, placed inside the same open field arena that the mice had visited on the previous day. […] Then, the percentage of exploration of the new object was calculated, reflecting the retention of the familiar object memory at long-term (24 h). […]

[2] = CLP mice + MnTBAP compared to CLP-placebo mice, 21 days
[3] = CLP mice + MnTBAP vs CLP-placebo, 21 days after sepsis, remained different from Control-Placebo
[4] = MnTBAP in control mice vs Control-placebo mice
[5] = MnTBAP in control mice vs Control-placebo mice, p<0.0001
[6] = MnTBAP in control mice vs Control-placebo mice, p=0.0003

O=C(O)c1ccc(/C2=C3\C=CC(=N3)/C(c3ccc(C(=O)O)cc3)=c3/cc/c4[n]3[Mn]([Cl])[n]3c2ccc3/C(c2ccc(C(=O)O)cc2)=C2/C=CC(=N2)\C=4c2ccc(C(=O)O)cc2)cc1 [MnTBAP, Manganese (III) tetrakis (4-benzoic acid)porphyrin chloride]
BBB penetration [1]: poorly penetrates the BBB | microglial OXPHOS/glycolysis ATP balance (microglial cells; [2]): strong microglial metabolic shift from mitochondrial OXPHOS to glycolysis | microglial PGC1 alpha expression (microglial cells; [2]): increase | microglial mtDNA content (microglial cells; [2]): strong mtDNA content increase | microglial mtRNA 16S expression (microglial cells; [2]): strong increase | microglial mtRNA CytB expression (microglial cells; [2]): strong increase | microglial NRF2 transcript expression (microglial cells; [3]): significantly increasing | microglial ROS/RNS levels (microglial cells; [3]): significantly increasing | microglial SOD1 transcript expression (microglial cells; [3]): significantly increasing | microglial SOD2 transcript expression (microglial cells; [3]): significantly increasing | microglial SOD activity (microglial cells; [3]): significantly increasing | microglial catalase transcript expression (microglial cells; [3]): significantly increasing | sepsis-induced microglial reprogramming and alterations (microglial cells; CLP mice, 21 days after sepsis): successfully reversed | microglial bioenergetic metabolite acetyl-CoA level (microglial cells; CLP mice, systemic MnTBAP treatment, FIG. 8): reduction | microglial ATP generation (microglial cells; [4]): did not affect | microglial SOD activity (microglial cells; [4]): did not affect | microglial glycolysis contribution (microglial cells; [4]): did not affect | microglial mtDNA content (microglial cells; MnTBAP in control mice vs Control-placebo mice, 0.01): reduced | microglial NRF2 expression (microglial cells; [5]): slightly reduced | microglial SOD1 expression (microglial cells; [5]): slightly reduced | microglial mtRNA 16S level (microglial cells; [5]): reduced | microglial mtRNA CytB level (microglial cells; [5]): reduced | microglial PGC1 alpha expression (microglial cells; [6]): reduced | microglial SOD2 expression (microglial cells; [6]): slightly reduced | microglial catalase expression (microglial cells; MnTBAP in control mice vs Control-placebo mice, p=0.0036): slightly reduced | microglial ROS/RNS levels (microglial cells; MnTBAP in control mice vs Control-placebo mice, p=0.005): slightly reduced | cognition / long-term cognitive function (control and CLP mice): restored cognition; also recorded: successfully restores long-term cognitive function
